From patent US4897344A, “Method of hardening gelatin” (Fuji Photo Film Co., Ltd., priority 1987, dated 1990)
Converted amounts (≈) assume the structure as drawn.

Test: Solubility in water at 25 °C (weight recovered undissolved and weight dissolved after stirring 5 hours)
Format: physicochemical
Conditions: for Weight Recovered: undissolved portion, 10 grams in 100 ml of water, 5 hours stirring; for solubility thermodynamic at 5 h: water, head prints 10 ml, text prints 100 ml
Method: Ten grams of Compound 1 of this invention and 10 grams of Comparative Compound (I) disclosed (as illustrative compound 3) in Japanese Patent Application No. 41221/78 for comparative purposes were each separately dissolved in 100 ml of water and stirred for 5 hours while maintaining a temperature of 25° C. The undissolved portion was recovered by filtration and the weight of the recovered material was determined after drying. Comparative Compound (I)
The weights of the compounds recovered and the amounts dissolved in 100 ml of water at 25° C. calculated on the basis of the weights recovered are shown in Table 1.

SMILES	Weight Recovered [grams]	solubility thermodynamic at 5 h [mg/mL]	solubility in water relative to Comparative Compound (I) (in words)
C=CS(=O)(=O)CC(=O)NCCNC(=O)CS(=O)(=O)C=C [Comparative Compound (I), reference compound]	8.0	20 (≈ 61.7 mM)	
C=CS(=O)(=O)C(CCc1ccc(S(=O)(=O)O)cc1)S(=O)(=O)C=C [Compound 1]	0	> 100	much better solubility in water
